# Reference: patent US9193669B2, “Compounds for treating ophthalmic diseases and disorders” (Acucela Inc., priority 2008, dated 2015)
# Biological target: T1, isomerase (Mus musculus, UniProt Q91ZQ5)
# T1 construct: The recovery of 11-cis-retinal after bleaching can be used to estimate the activity of isomerase in vivo; from tissue; host or cells: eyes of living mice (CD-1; Balb/c also named)
# T1 sequence (Q91ZQ5 1-533): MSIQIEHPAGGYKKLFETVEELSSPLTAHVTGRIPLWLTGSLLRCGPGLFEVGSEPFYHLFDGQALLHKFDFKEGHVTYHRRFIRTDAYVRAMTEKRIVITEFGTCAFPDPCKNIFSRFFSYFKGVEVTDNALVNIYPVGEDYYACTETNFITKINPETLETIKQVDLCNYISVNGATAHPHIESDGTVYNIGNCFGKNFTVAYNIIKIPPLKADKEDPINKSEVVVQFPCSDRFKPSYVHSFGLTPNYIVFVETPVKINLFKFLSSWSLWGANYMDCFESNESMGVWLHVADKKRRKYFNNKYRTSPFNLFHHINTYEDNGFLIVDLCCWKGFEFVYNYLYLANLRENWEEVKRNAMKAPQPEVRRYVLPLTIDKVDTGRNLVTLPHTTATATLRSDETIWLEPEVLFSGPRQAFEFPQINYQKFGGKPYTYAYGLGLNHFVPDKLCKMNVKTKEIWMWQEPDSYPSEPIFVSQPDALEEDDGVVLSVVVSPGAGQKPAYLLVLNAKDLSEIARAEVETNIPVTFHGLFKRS
# Assay: In vivo murine isomerase assay
# Parameters: species or system mice
# Conditions: mouse, po, 4 h; read-out: % Inibition 1 mg/kg, 4 h
# Method: The capability of compounds described herein to inhibit isomerase was determined by an in vivo murine isomerase assay. Brief exposure of the eye to intense light (“photobleaching” of the visual pigment or simply “bleaching”) is known to photo-isomerize almost all 11-cis-retinal in the retina. The recovery of 11-cis-retinal after bleaching can be used to estimate the activity of isomerase in vivo. Delayed recovery, as represented by lower 11-cis-retinal oxime levels, indicates inhibition of isomerization reaction. Procedures were performed essentially as described by Golczak et al., Proc. Natl. Acad. Sci. […] Mice were gavaged with the compounds described in the present disclosure. After about 2-24 hours in the dark, the mice were exposed to photobleaching of about 5,000 lux of white light for 10 minutes. The mice were allowed to recover for about 2 hours in the dark. The animals were then sacrificed by carbon dioxide inhalation. Retinoids were extracted from the eye and the regeneration of 11-cis-retinal was assessed at various time intervals. […] After the mice were sacrificed, the eyes were immediately removed and placed in liquid nitrogen for storage. The eyes were placed in about 500 μL of bis-tris propane buffer (10 mM, pH˜7.3) and about 20 μl of 0.8M hydroxylamine (pH˜7.3). The eyes were cut up into small pieces with small iris scissors and then thoroughly homogenized at 30000 rpm with a mechanical homogenizer (Polytron PT 1300 D) in the tube until no visible tissue remains. About 500 μL of methanol and about 500 μL of heptane was added to each tube. The tubes were attached to a vortexer so that the contents are mixed thoroughly for about 15 minutes in room temperature. […] The samples were analyzed on an Agilent 1100 HPLC system with normal phase column: SILICA (Beckman Coutlier, dp 5 μm, […]). […] Loading volume for each sample was about 100 μl; detection wavelength is 360 nm. The area under the curve for 11-cis-retinal oxime was calculated by Agilent Chemstation software and recorded manually. Data processing was performed using Prizm software. Positive control mice (no compound administered) were sacrificed fully dark-adapted and the eye retinoids analyzed. Light (bleached) control mice (no compound administered) were sacrificed and retinoids isolated and analyzed immediately after light treatment. A time course study was also performed to determine the isomerase inhibitory activity of compounds of the present disclosure. Female or male mice (such as Balb/c mice) (at least 4/group) received 0 to about 5 mg of compounds (in water) per kg bodyweight orally, by gavage. The animals were then “photo-bleached” (about 5000 Lux white light for about 10 minutes) at about 2, 4, 8, 16 and 24 hours after dosing, and returned to darkness to allow recovery of the 11-cis-retinal content of the eyes. Mice were sacrificed about 2 hours after bleaching, eyes were enucleated, and retinoid content was analyzed by HPLC. A dose response in vivo isomerase inhibition study is performed with compounds of the present disclosure. Male or female mice (such as Balb/c mice)(at least about 8/group) are dosed orally with about 0.01 to 25 mg/kg of the compounds of HCl salts of the compounds in sterile water as solution, and photobleached about 4 hours after dosing. Recovery and retinoid analysis is performed as described above. Dark control mice are vehicle-only treated, sacrificed fully dark adapted without light treatment, and analyzed. […]
smiles,measurement,value
"NCCC(O)c1cccc(NCC2CCCCC2)c1 (stereo not drawn) [Example 11, 3-amino-1-(3-(cyclohexylmethylamino)phenyl)propan-1-ol]",inhibition in vivo at 1 mg/kg,95.3 ± 2.7%
"NCCC(=O)c1cccc(NCC2CCCCC2)c1 [Example 12, 3-amino-1-(3-(cyclohexylmethylamino)phenyl)propan-1-one]",inhibition in vivo at 1 mg/kg,9.16 ± 9.41%
"CCCCCNc1cccc(C(O)CCN)c1 (stereo not drawn) [Example 13, 3-amino-1-(3-(pentylamino)phenyl)propan-1-ol]",inhibition in vivo at 1 mg/kg,1.98 ± 6.02%
"CCCCCNc1cccc(C(=O)CCN)c1 [Example 14, 3-amino-1-(3-(pentylamino)phenyl)propan-1-one]",inhibition in vivo at 1 mg/kg,8.12 ± 16.2%
"NCCC(O)c1cccc(NC(=O)C2CCCCC2)c1 (stereo not drawn) [Example 15, N-(3-(3-amino-1-hydroxypropyl)phenyl)cyclohexanecarboxamide]",inhibition in vivo at 1 mg/kg,-0.003 ± 19.4%
"NCCC(=O)c1cccc(NC(=O)C2CCCCC2)c1 [Example 16, N-(3-(3-aminopropanoyl)phenyl)cyclohexanecarboxamide]",inhibition in vivo at 1 mg/kg,17.1 ± 5.32%
"NCCCc1cccc(NCC2CCCC2)c1 [Example 31, 3-(3-aminopropyl)-N-(cyclopentylmethyl)aniline]",inhibition in vivo at 1 mg/kg,9.52 ± 4.6%
"CCC(CC)CNc1cccc(CCCN)c1 [Example 33, 3-(3-aminopropyl)-N-(2-ethylbutyl)aniline]",inhibition in vivo at 1 mg/kg,4.32 ± 7.88%
"CCC(CC)CNc1cccc(C(O)CCN)c1 (stereo not drawn) [Example 35, 3-amino-1-(3-(2-ethylbutylamino)phenyl)propan-1-ol]",inhibition in vivo at 1 mg/kg,95.2 ± 1.41%
"CCC(CC)CNc1cccc(C(=O)CCN)c1 [Example 36, 3-Amino-1-(3-(2-ethylbutylamino)phenyl)propan-1-one]",inhibition in vivo at 1 mg/kg,-1.4 ± 2.78%
"CCCC(CCC)CNc1cccc(C(O)CCN)c1 (stereo not drawn) [Example 37, 3-Amino-1-(3-(2-propylpentylamino)phenyl)propan-1-ol]",inhibition in vivo at 1 mg/kg,101.6 ± 0.49%
"NCCC(O)c1cccc(NCC2CCCC2)c1 (stereo not drawn) [Example 39, 3-Amino-1-(3-(cyclopentylmethylamino)phenyl)propan-1-ol]",inhibition in vivo at 1 mg/kg,69.9 ± 6.85%
"NCCC(=O)c1cccc(NCC2CCCC2)c1 [Example 40, 3-Amino-1-(3-(cyclopentylmethylamino)phenyl)propan-1-one]",inhibition in vivo at 1 mg/kg,1.24 ± 9.74%
"NCCC(O)c1cccc(NCCCCCOCc2ccccc2)c1 (stereo not drawn) [Example 41, 3-Amino-1-(3-(5-(benzyloxy)pentylamino)phenyl)propan-1-ol]",inhibition in vivo at 1 mg/kg,-0.34 ± 6.12%
"COc1ccccc1CNc1cccc(C(O)CCN)c1 (stereo not drawn) [Example 47, 3-Amino-1-(3-((2-methoxybenzyl)amino)phenyl)propan-1-ol]",inhibition in vivo at 1 mg/kg,4.08 ± 4.84%
"COc1ccccc1CNc1cccc(C(=O)CCN)c1 [Example 48, 3-Amino-1-(3-(2-methoxybenzylamino)phenyl)propan-1-one]",inhibition in vivo at 1 mg/kg,0.21 ± 8.88%
"NCCC(O)c1cccc(NCCc2ccccc2)c1 (stereo not drawn) [Example 49, 3-Amino-1-(3-(phenethylamino)phenyl)propan-1-ol]",inhibition in vivo at 1 mg/kg,4.54%
"[2H]C([2H])(CN)C(O)c1cccc(NC(=O)C2CCCCC2)c1 (stereo not drawn) [Example 57, N-(3-(3-amino-2,2-dideutero-1-hydroxypropyl)phenyl)cyclohexanecarboxamide]",inhibition in vivo at 1 mg/kg,2.01 ± 1.3%
"[2H]C([2H])(CN)C(O)c1cccc(NS(=O)(=O)C2CCCCC2)c1 (stereo not drawn) [Example 58, N-(3-(3-amino-2,2-dideutero-1-hydroxypropyl)phenyl)cyclohexanesulfonamide]",inhibition in vivo at 1 mg/kg,6.94 ± 5.15%
"NCCC(O)c1cccc(NCCCc2ccccc2)c1 (stereo not drawn) [Example 59, 3-Amino-1-(3-(3-phenylpropylamino)phenyl)propan-1-ol]",inhibition in vivo at 1 mg/kg,4.24 ± 13%
"NCCC(=O)c1cccc(NCCCc2ccccc2)c1 [Example 60, 3-Amino-1-(3-(3-phenylpropylamino)phenyl)propan-1-one]",inhibition in vivo at 1 mg/kg,-1.33 ± 5.2%
"NCCCc1cccc(NCCCc2ccccc2)c1 [Example 64, 3-(3-Aminopropyl)-N-(3-phenylpropyl)aniline]",inhibition in vivo at 1 mg/kg,3.83%
"CCCC(CCC)C(=O)Nc1cccc(C(O)CCN)c1 (stereo not drawn) [Example 73, N-(3-(3-Amino-1-hydroxypropyl)phenyl)-2-propylpentanamide]",inhibition in vivo at 1 mg/kg,-1.24 ± 4.43%
"[2H]C(O)(CCN)c1cccc(NCC2CCCCC2)c1 (stereo not drawn) [Example 81, 3-Amino-1-(3-(cyclohexylmethylamino)phenyl)-1-deuteropropan-1-ol]",inhibition in vivo at 1 mg/kg,85 ± 3.06%
"[2H]C([2H])(CN)C(O)c1cccc(NCC2CCCCC2)c1 (stereo not drawn) [Example 82, 3-Amino-1-(3-(cyclohexylmethylamino)phenyl)-2,2-dideuteropropan-1-ol]",inhibition in vivo at 1 mg/kg,75.1 ± 8.03%
"[2H]C([2H])(N)CC(O)c1cccc(NCC2CCCCC2)c1 (stereo not drawn) [Example 83, 3-Amino-1-(3-(cyclohexylmethylamino)phenyl)-3,3-dideuteropropan-1-ol]",inhibition in vivo at 1 mg/kg,89.5 ± 2.09%
"CN(CC1CCCCC1)c1cccc(C(O)CCN)c1 (stereo not drawn) [Example 90, 3-Amino-1-(3-((cyclohexylmethyl)(methyl)amino)phenyl)propan-1-ol]",inhibition in vivo at 1 mg/kg,3.17 ± 4.97%
"[2H]C1(CNc2cccc(C(O)CCN)c2)CCCCC1 (stereo not drawn) [Example 91, 3-Amino-1-(3-((1-deuterocyclohexyl)methylamino)phenyl)propan-1-ol]",inhibition in vivo at 1 mg/kg,95.5 ± 1.07%
"[2H]C1([2H])C([2H])([2H])C([2H])([2H])C([2H])(C(=O)Nc2cccc(C(O)CCN)c2)C([2H])([2H])C1([2H])[2H] (stereo not drawn) [Example 93, N-(3-(3-Amino-1-hydroxypropyl)phenyl)-1,2,2,3,3,4,4,5,5,6,6-undecadeuterocyclohexanecarboxamide]",inhibition in vivo at 1 mg/kg,-0.53 ± 4.53%
"NCCCc1cccc(NS(=O)(=O)c2ccccc2)c1 [Example 99, N-(3-(3-Aminopropyl)phenyl)benzenesulfonamide]",inhibition in vivo at 1 mg/kg,-3.83 ± 5.52%
"NCCC(O)c1cccc(NS(=O)(=O)c2ccccc2)c1 (stereo not drawn) [Example 101, N-(3-(3-Amino-1-hydroxypropyl)phenyl)benzenesulfonamide]",inhibition in vivo at 1 mg/kg,1.82 ± 10.5%
"NCCC(=O)c1cccc(NS(=O)(=O)c2ccccc2)c1 [Example 103, N-(3-(3-Aminopropanoyl)phenyl)benzenesulfonamide]",inhibition in vivo at 1 mg/kg,-2.77 ± 6.53%
"[2H]/C(=C(/[2H])C(O)(CCC)CCC)c1cccc(C(O)CCN)c1 (stereo not drawn) [Example 117, (E)-4-(2-(3-(3-Amino-1-hydroxypropyl)phenyl)-1,2-dideuterovinyl)heptan-4-ol]",inhibition in vivo at 1 mg/kg,97.9 ± 1.5%
"[2H]C([2H])(N)CC(O)c1cccc(C#CC2(O)CCCCC2)c1 (stereo not drawn) [Example 121, 1-((3-(3-amino-3,3-dideutero-1-hydroxypropyl)phenyl)ethynyl)cyclohexanol]",inhibition in vivo at 1 mg/kg,27.5 ± 9.6%
"[2H]C([2H])(CN)C(O)c1cccc(C#CC2CCCCC2)c1 (stereo not drawn) [Example 122, 3-amino-1-(3-(cyclohexylethynyl)phenyl)-2,2-dideuteropropan-1-ol]",inhibition in vivo at 1 mg/kg,84.9 ± 4.5%
"[2H]C([2H])(N)CC(O)c1cccc(C#CC2CCCCC2)c1 (stereo not drawn) [Example 123, 3-amino-1-(3-(cyclohexylethynyl)phenyl)-3,3-dideuteropropan-1-ol]",inhibition in vivo at 1 mg/kg,91.4 ± 2.5%
